Results as given in patent US10392422B2, “Macrocyclic broad spectrum antibiotics” (priority 2014, dated 2019).
Converted amounts (≈) assume the structure as drawn. Like-named read-outs stand apart in the source and are kept apart here.

Legend:
Assay in all cases: MIC, broth micro-dilution technique (CLSI)
[1] = system: Escherichia coli MC4100 harboring the IMP4213; assay type: cell-based; settings: for MIC: Escherichia coli, 22 h
Summary of the method: (§1)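 Cation-adjusted MHB + 0.002% Tween-80; 10-point 2-fold series starting 64 μg/ml (modified protocol: 4 μg/mL). Final inoculum OD600 0.0005; 35° C, 22 h. MIC per CLSI M07-A8 broth microdilution.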

[2] = system: Methicillin Resistant Staphylococcus aureus strain USA 300 (NRS384); assay type: cell-based; settings: for MIC: Staphylococcus aureus, 22 h, read-out: MIC (μg/mL) S. aureus
Summary of the method: as §1

MRSA COL (NRS100) = assay type: cell-based, Staphylococcus aureus; settings: for MIC: Staphylococcus aureus, 22 h, read-out: MIC (μg/mL) (COL)
Summary of the method: as §1

[3] = read-out: MIC (μg/mL) E. coli, Table 1 protocol: serial 2-fold dilutions starting from 64 μg/ml, 35° C., 22 hours
[4] = Table 1 protocol: serial 2-fold dilutions starting from 64 μg/ml, 35° C., 22 hours
[5] = Table 2 modified protocol: serial 2-fold dilutions starting from 4 μg/mL, 35° C., 22 hours
[6] = read-out: MIC (μg/mL) E. coli, Table 2 modified protocol: serial 2-fold dilutions starting from 4 μg/mL, 35° C., 22 hours

| Compound | MIC [1, 3] [µg/mL] | MIC [2, 4] [µg/mL] | MIC (MRSA COL (NRS100); [4]) [µg/mL] | MIC [2] [µg/mL] | MIC (MRSA COL (NRS100)) [µg/mL] | also measured |
| --- | --- | --- | --- | --- | --- | --- |
| CCCCCCCCCCNCCS(=O)(=O)N[C@@H](CCCCN)C(=O)N(C)[C@@H]1C(=O)N[C@@H](C)C(=O)N[C@H](C(=O)N[C@@H](C)C(=O)N2CCC[C@H]2C(N)=O)Cc2ccc(O)c(c2)-c2cc1ccc2O [Compound 215] | > 64 | 0.5 (≈ 0.523 µM) | 0.25 (≈ 0.261 µM) | – | – | – |
| CCCCCCCCCCNCCC(=O)N(C)[C@@H]1C(=O)N[C@@H](C)C(=O)N[C@H](C(=O)N[C@@H](C)C(C)=O)Cc2ccc(OCCN)c(c2)-c2cc1ccc2OCCN.O=CO [Compound 268] | – | – | – | – | – | MIC (μg/mL) E. coli [1, 5]: 2.5 µg/mL; MIC (μg/mL) S. aureus [2, 5]: 2.1 µg/mL; MIC (μg/mL) (COL) (MRSA COL (NRS100); [5]): 1 µg/mL |
| C[C@@H]1NC(=O)[C@@H](N(C)C(=O)[C@H](CCCCN)NC(=O)c2ccc(-c3ccc(Cl)cc3)cc2)c2ccc(O)c(c2)-c2cc(ccc2O)C[C@@H](C(=O)N[C@@H](C)C(=O)C(=O)NCc2cc[nH]n2)NC1=O [Compound 141] | 32 (≈ 34.2 µM) | 8 (≈ 8.56 µM) | 4 (≈ 4.28 µM) | – | – | – |
| C[C@H](NC(=O)[C@@H]1Cc2ccc(O)c(c2)-c2cc(ccc2O)[C@H](N(C)C(=O)[C@H](CCCCN)NC(=O)c2ccc(-c3ccc(Cl)cc3)cc2)C(=O)N[C@@H](C)C(=O)N1)C(=O)CP(=O)(O)O [Compound 166] | – | – | – | 32 (≈ 35.3 µM) | 8 (≈ 8.84 µM) | MIC ([1]; read-out: MIC (μg/mL) E. coli): > 64 µg/mL |
| CCCCCCCCc1ccc(C(=O)N[C@@H](CCCN)C(=O)N(C)[C@@H]2C(=O)N[C@@H](C)C(=O)N[C@H](C(=O)O)Cc3ccc(OCCN)c(c3)-c3cc2ccc3OCCN)c(F)c1 [Compound 297] | 0.063 (≈ 0.0743 µM) | – | – | 0.38 (≈ 0.448 µM) | 0.063 (≈ 0.0743 µM) | – |
| C[C@@H]1NC(=O)[C@@H](N(C)C(=O)[C@H](CCCCN)NC(=O)c2ccc(-c3ccc(Cl)cc3)cc2)c2ccc(O)c(c2)-c2cc(ccc2O)C[C@@H](C(=O)N[C@@H](C)C(=O)c2nnc[nH]2)NC1=O [Compound 231] | 8 (≈ 9.11 µM) | 6 (≈ 6.83 µM) | 1 (≈ 1.14 µM) | – | – | – |
| CCCCCCCCCCCCCC(=O)N[C@@H](CCCN)C(=O)N(C)[C@@H]1C(=O)N[C@@H](C)C(=O)N[C@H](C(=O)O)Cc2ccc(OCCN)c(c2)-c2cc1ccc2OCCN [Compound 303] | – | – | – | 0.13 (≈ 0.158 µM) | 0.023 (≈ 0.0279 µM) | MIC [1, 6]: 0.023 µg/mL (≈ 0.0279 µM) |
| CCCCCCCCCCNCCC(=O)N[C@@H](CCCCN)C(=O)N(C)[C@@H]1C(=O)N[C@@H](C)C(=O)N[C@H](C(=O)N[C@@H](C)C(C)=O)Cc2ccc(OC3O[C@H](CO)[C@@H](O)[C@H](O)[C@H]3N)c(c2)-c2cc1ccc2OC1O[C@H](CO)[C@@H](O)[C@H](O)[C@H]1N (stereo partly drawn) [Compound 340] | – | – | – | > 4 | 2 (≈ 1.75 µM) | MIC [1, 6]: > 4 µg/mL |
| C[C@@H]1NC(=O)[C@@H](N(C)C(=O)[C@H](CCCCN)NC(=O)Cc2ccc(-c3ccc(Cl)cc3)cc2)c2ccc(OCCN)c(c2)-c2cc(ccc2OCCN)C[C@@H](C(=O)O)NC1=O [Compound 286] | – | – | – | 4 (≈ 4.67 µM) | 1.5 (≈ 1.75 µM) | MIC [1, 6]: 4 µg/mL (≈ 4.67 µM) |
| CC(=O)[C@H](C)NC(=O)[C@@H]1Cc2ccc(O)c(c2)-c2cc(ccc2OCCn2ccnc2)[C@H](N(C)C(=O)[C@H](CCCCN)NC(=O)c2ccc(-c3ccc(Cl)cc3)cc2)C(=O)N[C@@H](C)C(=O)N1 [Compound 331] | 8 (≈ 8.7 µM) | 16 (≈ 17.4 µM) | 2 (≈ 2.18 µM) | – | – | – |
| CC(=O)OCC(=O)CNC(=O)[C@@H]1Cc2ccc(O)c(c2)-c2cc(ccc2O)[C@H](N(C)C(=O)[C@H](CCCCN)NC(=O)c2ccc(-c3ccc(Cl)cc3)cc2)C(=O)N[C@@H](C)C(=O)N1 [Compound 254] | – | – | – | – | – | MIC [1, 6]: > 4 µg/mL; MIC [2, 5]: 4 µg/mL (≈ 4.6 µM); MIC (MRSA COL (NRS100); [5]): 2 µg/mL (≈ 2.3 µM) |
| C[C@@H]1NC(=O)[C@@H](N(C)C(=O)[C@H](CCCCN)NC(=O)c2ccc(-c3ccc(Cl)cc3)cc2)c2ccc(O)c(c2)-c2cc(ccc2O)C[C@@H](C(=O)N[C@@H](C)/C=C\S(C)(=O)=O)NC1=O [Compound 145] | > 64 | – | – | > 64 | 64 (≈ 72.1 µM) | – |
| CCCCCCCCCCNCCC(=O)N[C@@H](CCCCN)C(=O)N(C)[C@@H]1C(=O)N[C@@H](C)C(=O)N[C@H](C(=O)O)Cc2ccc(O)c(c2)-c2cc1ccc2O [Compound 110] | 64 (≈ 85 µM) | – | – | 29 (≈ 38.5 µM) | 8 (≈ 10.6 µM) | – |
| CCCCCCCCCCNCCC(=O)N[C@@H](CCCCN)C(=O)N(C)[C@@H]1C(=O)N[C@@H](C)C(=O)N[C@H](C(=O)N[C@@H](C)C(=O)CO)Cc2ccc(O)c(c2)-c2cc1ccc2OCCN [Compound 201] | 8 (≈ 9.08 µM) | 0.35 (≈ 0.397 µM) | 0.063 (≈ 0.0715 µM) | – | – | – |
| CCCCCCCCCCNCCC(=O)N[C@@H](CCCCN)C(=O)N(C)[C@@H]1C(=O)N[C@@H](C)C(=O)N[C@H](C(=O)N[C@@H](C)C(=O)c2nnn[nH]2)Cc2ccc(O)c(c2)-c2cc1ccc2OCCN [Compound 193] | 8 (≈ 8.7 µM) | 0.5 (≈ 0.544 µM) | 0.13 (≈ 0.141 µM) | – | – | – |
| CNC(=O)CCC(=O)[C@H](C)NC(=O)[C@@H]1Cc2ccc(O)c(c2)-c2cc(ccc2O)[C@H](N(C)C(=O)[C@H](CCCCN)NC(=O)c2ccc(-c3ccc(Cl)cc3)cc2)C(=O)N[C@@H](C)C(=O)N1 [Compound 149] | 64 (≈ 71.4 µM) | > 64 | 64 (≈ 71.4 µM) | – | – | – |
| C[C@@H]1NC(=O)[C@@H](N(C)C(=O)[C@H](CCCCN)NC(=O)c2cccc(-c3ccc(Cl)cc3)c2)c2ccc(OCCN)c(c2)-c2cc(ccc2OCCN)C[C@@H](C(=O)O)NC1=O [Compound 282] | – | – | – | > 4 | 2 (≈ 2.37 µM) | MIC [1, 6]: 1 µg/mL (≈ 1.19 µM) |
| CC(=O)[C@H](C)NC(=O)[C@@H]1Cc2ccc(O)c(c2)-c2cc(ccc2O)[C@H](N(C)C(=O)[C@H](CCCCN)NS(=O)(=O)c2ccc(-c3ccc(Cl)cc3)cc2)C(=O)N[C@@H](C)C(=O)N1 [Compound 223] | 32 (≈ 37.1 µM) | 0.71 (≈ 0.824 µM) | 2 (≈ 2.32 µM) | – | – | – |
| CCCCCCCCCCCCCC(=O)NC(CCCCN)C(=O)N(C)C1C(=O)NC(C)C(=O)NC(C(=O)NC(C)B2OC3CC4CC(C4(C)C)C3(C)O2)Cc2ccc(OCCN)c(c2)-c2cc1ccc2OCCN (stereo not drawn) [Compound 314] | – | – | – | – | – | MIC (μg/mL) E. coli [1, 4]: 0.094 µg/mL (≈ 0.0901 µM); MIC (μg/mL) S. aureus [2, 4]: 0.063 µg/mL (≈ 0.0604 µM); MIC (μg/mL) (COL) (MRSA COL (NRS100); [4]): 0.012 µg/mL (≈ 0.0115 µM) |
| C[C@@H]1NC(=O)[C@@H](N(C)C(=O)[C@H](CCCCN)NC(=O)c2ccc(-c3ccc(Cl)cc3)cc2)c2ccc(O)c(c2)-c2cc(ccc2O)C[C@@H](C(=O)N[C@@H](C)C(=O)N(CCO)CC(N)=O)NC1=O [Compound 243] | – | – | – | – | – | MIC [1, 6]: > 4 µg/mL; MIC [2, 5]: > 4 µg/mL; MIC (MRSA COL (NRS100); [5]): > 4 µg/mL |
| CC(NC(=O)[C@@H]1Cc2ccc(O)c(c2)-c2cc(ccc2O)[C@H](N(C)C(=O)[C@H](CCCCN)NC(=O)c2ccc(-c3ccc(Cl)cc3)cc2)C(=O)N[C@@H](C)C(=O)N1)C(=O)c1ncco1 (stereo partly drawn) [Compound 188] | 11 (≈ 12.5 µM) | 16 (≈ 18.2 µM) | 4 (≈ 4.55 µM) | – | – | – |
| CCCCCCCCCCCC(=O)N[C@@H](CCN)C(=O)N(C)[C@@H]1C(=O)N[C@@H](C)C(=O)N[C@H](C(=O)O)Cc2ccc(OCCN)c(c2)-c2cc1ccc2OCCN [Compound 304] | – | – | – | 0.5 (≈ 0.639 µM) | 0.13 (≈ 0.166 µM) | MIC [1, 6]: 0.047 µg/mL (≈ 0.0601 µM) |
| C[C@@H]1NC(=O)[C@@H](N(C)C(=O)[C@H](CCCCN)NC(=O)c2ccc(-c3ccc(Cl)cc3)cc2)c2ccc(O)c(c2)-c2cc(ccc2O)C[C@@H](C(=O)N[C@@H](C)C(=O)N2CSC[C@@H]2C(N)=O)NC1=O [Compound 175] | 32 (≈ 34 µM) | > 64 | 32 (≈ 34 µM) | – | – | – |
| COC(=O)C(=O)[C@H](C)NC(=O)[C@@H]1Cc2ccc(O)c(c2)-c2cc(ccc2O)[C@H](N(C)C(=O)[C@H](CCCCN)NC(=O)c2ccc(-c3ccc(Cl)cc3)cc2)C(=O)N[C@@H](C)C(=O)N1 [Compound 139] | 8 (≈ 9.2 µM) | – | – | 11 (≈ 12.7 µM) | 4 (≈ 4.6 µM) | – |
| CCOS(=O)(=O)/C=C/[C@H](C)NC(=O)[C@@H]1Cc2ccc(O)c(c2)-c2cc(ccc2O)[C@H](N(C)C(=O)[C@H](CCCCN)NC(=O)c2ccc(-c3ccc(Cl)cc3)cc2)C(=O)N[C@@H](C)C(=O)N1 [Compound 248] | > 64 | – | – | 21 (≈ 22.9 µM) | 4 (≈ 4.36 µM) | – |
